According to patent US20050049294A1, “Methods of using [3.2.0] heterocyclic compounds and analogs thereof” (priority 2003, published 2005):
Where two headings read alike, the source gives them in different places.

What was measured:
[1] = system: LeTx-induced cytotoxicity of RAW264.7 cells; test: cells; details: Mus musculus, RAW264.7, read-out: EC50 (nM), inhibition of RAW 264.7 cell cytotoxicity mediated by anthrax lethal toxin
[2] = system: U266 cells; test: Cell growth inhibition (resazurin, 48 hours), U266
[3] = target: T1, trypsin-like activity of purified rabbit 20S proteasomes (Oryctolagus cuniculus, UniProt G1SWK8); details: under the conditions tested
T1 sequence (G1SWK8 1-271): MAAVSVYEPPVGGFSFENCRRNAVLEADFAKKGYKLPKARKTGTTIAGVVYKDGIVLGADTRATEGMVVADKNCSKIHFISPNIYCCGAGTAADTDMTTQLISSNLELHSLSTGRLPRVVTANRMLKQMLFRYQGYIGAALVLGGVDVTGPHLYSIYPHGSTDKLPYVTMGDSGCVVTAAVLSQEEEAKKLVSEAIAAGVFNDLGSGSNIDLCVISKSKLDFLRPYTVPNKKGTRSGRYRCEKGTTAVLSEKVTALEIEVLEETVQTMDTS

[4] = system: HL-60 cells; test: Cell growth inhibition (resazurin, 48 hours), HL-60
From the text: (§1) The DNA binding agent Mitoxantrone was included as a control, as HL-60/MX2 cells are reported to be resistant to this chemotherapeutic agent (Harker W. G. et al. 1989).

[5] = system: HT-29 cells; test: Cell growth inhibition (resazurin, 48 hours), HT-29; format: cell-based; details: Homo sapiens, HT-29
[6] = system: OVCAR-3 cells; test: Cell growth inhibition (resazurin, 48 hours), OVCAR-3; format: cell-based, human; details: Homo sapiens, OVCAR-3, Table 13; OVCAR-3
[7] = system: NCI-H292 cells; test: Cell growth inhibition (resazurin, 48 hours), NCI-H292; format: cell-based, human; details: NCI-H292
[8] = system: PC-3 cells; test: Cell growth inhibition (resazurin, 48 hours), PC-3; format: cell-based, human; details: Homo sapiens, PC-3
[9] = system: B16-F10 cells; test: Cell growth inhibition (resazurin, 48 hours), B16-F10; format: cell-based, mouse; details: B16-F10
[10] = system: RPMI 8226 cells; test: Cell growth inhibition (resazurin, 48 hours), RPMI 8226
[11] = system: MES-SA/Dx5 cells; test: cells; details: for Fold change: ratio of EC50 values (MES-SA/Dx5:MES-SA)
[12] = system: HL-60/MX2 cells; test: cells; details: for Fold change: ratio of EC50 values (HL-60/MX2:HL-60)
From the text: as §1

[13] = system: MDA-MB-231 cells; test: Cell growth inhibition (resazurin, 48 hours), MDA-MB-231; format: cell-based; details: Homo sapiens, MDA-MB-231
[14] = target: T1, trypsin-like activity of purified rabbit 20S proteasomes; test: biochemical
[15] = system: NF-κB-mediated luciferase activity in HEK293 NF-κB/Luc cells; test: NF-κB-mediated luciferase reporter gene assay; format: cell-based, human; details: for luciferase activity upon TNF-α stimulation: pretreatment of NF-κB/Luc 293 cells
Procedure: (§2) The HEK293 NF-κB/luciferase reporter cell line is a derivative of the human embryonic kidney cell line (ATCC; CRL- 1573) and carries a luciferase reporter gene under the regulation of 5×NF-κB binding sites. […] When performing the luciferase assay, the DMEM basal medium was replaced with phenol-red free DMEM basal medium and the G418 was omitted.
For NF-κB-mediated luciferase assays, HEK293 NF-κB/luciferase cells were seeded at 1.5×10^4 cells/well in 90 μl phenol-red free DMEM complete medium into Corning 3917 white opaque-bottom tissue culture plates. […] This dilution series was further diluted 40× in appropriate culture medium and ten μl aliquots were added to the test wells in triplicate resulting in final test concentrations ranging from 1 μM to 320 pM. […] For Formula II-19, a 127 μM starting dilution was made in 100% DMSO and the final test concentrations ranging from 317 nM to 0.1 nM. […] After 1 hr pretreatment, 10 μl of a 50 ng/ml TNF-α solution, prepared in the phenol-red free DMEM medium was added, and the plates were incubated for an additional 6 hr.
NF-κB inducible luciferase activity was measured at 6 hours.
as §2, with “CRL-1573)” for “CRL- 1573)”
For NF-κB-mediated luciferase assays, HEK293 NF-κB/luciferase cells were seeded at 1.5×10^4 cells/well in 90 μl phenol-red free DMEM complete medium into Corning 3917 white opaque-bottom tissue culture plates. For Formula II-2, Formula II-4 and Formula II-5A, a 400 μM starting dilution was made in 100% DMSO and this dilution was used to generate a 8-point half log dilution series. This dilution series was further diluted 40× in appropriate culture medium and ten μl aliquots were added to the test wells in triplicate resulting in final test concentrations ranging from 1 μM to 320 pM. […] After 1 hr pretreatment, 10 μl of a 50 ng/ml TNF-α solution, prepared in the phenol-red free DMEM medium was added, and the plates were incubated for an additional 6 hr.
The relative luciferase units (RLU) were measured by using a Fusion microplate fluorometer (Packard Bioscience).

[16] = Homo sapiens, U-266, Table 13, U266
[17] = Homo sapiens, U-266, read-out: U266 EC50 (nM), Table 15, mean EC50
[18] = Homo sapiens, HL-60, read-out: EC50 (nM) HL-60, Table 17
[19] = Homo sapiens, NCI-H292, Table 13
[20] = Mus musculus, B16-F10, Table 13
[21] = Homo sapiens, RPMI-8226, Table 13, RPMI 8226
[22] = Homo sapiens, RPMI-8226, read-out: RPMI 8226 EC50 (nM), Table 15, mean EC50
[23] = Homo sapiens, HL60/MX2, read-out: EC50 (nM) HL-60/MX2, Table 17
[24] = read-out: EC50 (nM) HL-60/MX2, Table 17

SMILES	EC50 [1]	EC50 [2, 16]	EC50 [2, 17]	inhibit the trypsin-like activity of the 20S proteasome [3]	EC50 [4, 18]	EC50 [6]	EC50 [7, 19]	EC50 [8]	EC50 [9, 20]	EC50 ([9]; Table 13)	EC50 [10, 21]	EC50 [10, 22]	Fold change ([11]; Table 16)	EC50 [12, 23]	Fold change ([12]; Table 17)	EC50 [12, 24]	EC50 [13]	EC50 [14]	luciferase activity upon TNF-α stimulation [15]	also measured
C[C@@]12OC(=O)[C@]1([C@@H](O)C1CCCCC1)NC(=O)[C@@H]2CCBr [Formula II-4]	14 nM	39 nM	36 nM	able to inhibit	111 nM	> 6320 nM	192 nM	204 ± 49 nM	163 nM	175 nM	57 nM	54 nM	0.9 fold	103 nM	0.8 fold	97 nM	114 ± 4 nM	109 nM	dose-dependent decrease	EC50 ([2]; Table 13, U266): 34 nM; EC50 ([5]; Table 13, read-out: EC50): 132 ± 36 nM; EC50 ([11]; Homo sapiens, MES-SA/Dx5, read-out: EC50 (nM) MES-SA/Dx5, Table 16): 178 nM; EC50 ([11]; read-out: EC50 (nM) MES-SA/Dx5, Table 16): 93 nM; EC50 ([15]; Homo sapiens, HEK293, read-out: calculated EC50 to inhibit NF-κB inducible luciferase activity): 67 nM
C[C@@]12OC(=O)[C@]1([C@@H](O)[C@@H]1C=CCCC1)NC(=O)[C@@H]2CCBr [Formula II-18]	4 nM	4.2 nM	4.2 nM	able to inhibit	27 nM	> 2000 nM	29 nM	35 ± 5.6 nM	19 nM	36 nM	6.3 nM	6.3 nM	1.2 fold	19 nM	0.7 fold	18 nM	16 ± 2.8 nM	14 nM	dose-dependent decrease	EC50 ([4]; read-out: EC50 (nM) HL-60, Table 17): 23 nM; EC50 [5]: 18 ± 7.8 nM; EC50 ([7]; Table 13): 41 nM; EC50 ([10]; Homo sapiens, RPMI-8226, 48 h, read-out: EC50, μM (mean ± SD), Table 9, RPMI 8226, 48 hour): 17 nM; % cytotoxicity, mean ± SD ([10]; Table 9, RPMI 8226, 48 hour): 94, 94%; EC50 ([10]; read-out: EC50, μM (mean ± SD), Table 9, RPMI 8226, 48 hour): 22 nM
